{
  "source": "ChEMBL document CHEMBL1135930",
  "about": "“Identification of nonpeptidic urotensin II receptor antagonists by virtual screening based on a pharmacophore model derived from structure-activity relationships and nuclear magnetic resonance studies on urotensin II” (J Med Chem, 2002)",
  "note": "Calls of active or inactive are those of the source. No cut-off for these calls is given here. Positions of bridges follow the written chain, without caps; N, C: chain ends. Residues, ends and D or L forms follow the SMILES beside them.",
  "data": [
    {"molecular_target": "T1, Urotensin-2 receptor (Homo sapiens, UniProt Q9UKP6)", "T1 sequence (Q9UKP6 whole entry)": "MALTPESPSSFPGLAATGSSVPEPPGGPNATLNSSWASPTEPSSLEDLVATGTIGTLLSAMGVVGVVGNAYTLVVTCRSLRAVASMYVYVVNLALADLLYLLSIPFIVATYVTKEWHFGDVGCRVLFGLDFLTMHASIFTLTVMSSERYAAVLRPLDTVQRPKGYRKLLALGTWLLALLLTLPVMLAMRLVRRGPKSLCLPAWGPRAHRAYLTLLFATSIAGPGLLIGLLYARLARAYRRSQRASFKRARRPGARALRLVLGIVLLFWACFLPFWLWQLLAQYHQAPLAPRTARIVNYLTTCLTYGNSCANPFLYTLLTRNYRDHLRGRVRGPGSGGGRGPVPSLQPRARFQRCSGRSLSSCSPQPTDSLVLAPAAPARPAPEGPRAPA", "experiment": "(§1) Mobilization of intracellular calcium in CHO cells transiently transfected with human Urotensin 2 receptor", "assay_type": "functional, cell-based", "settings": "not given", "units": {"EC50": "nM"}, "values": [
      {"compound": "CC(C)[C@H](NC(=O)[C@H](CS)NC(=O)[C@H](Cc1ccc(O)cc1)NC(=O)[C@H](CCCCN)NC(=O)[C@H](Cc1c[nH]c2ccccc12)NC(=O)[C@H](Cc1ccccc1)NC(=O)[C@H](C)NC(=O)[C@H](CC(=O)O)NC(=O)[C@@H]1CCCN1C(=O)[C@@H](NC(=O)[C@@H](N)CCC(=O)O)[C@@H](C)O)C(=O)O", "EC50": 233},
      {"compound": "CC(C)[C@H](NC(=O)[C@H](CS)NC(=O)[C@H](Cc1ccc(O)cc1)NC(=O)[C@H](CCCCN)NC(=O)[C@H](Cc1c[nH]c2ccccc12)NC(=O)[C@H](Cc1ccccc1)NC(=O)[C@H](CS)NC(=O)[C@H](C)NC(=O)[C@@H]1CCCN1C(=O)[C@@H](NC(=O)[C@@H](N)CCC(=O)O)[C@@H](C)O)C(=O)O", "EC50": 2.7},
      {"compound": "CC(C)[C@H](NC(=O)[C@H](CS)NC(=O)[C@H](Cc1ccc(O)cc1)NC(=O)[C@H](CCCCN)NC(=O)[C@H](Cc1c[nH]c2ccccc12)NC(=O)[C@H](Cc1ccccc1)NC(=O)[C@H](CS)NC(=O)[C@H](CC(=O)O)NC(=O)[C@@H]1CCCN1C(=O)[C@@H](NC(=O)[C@H](C)N)[C@@H](C)O)C(=O)O", "EC50": 1.8},
      {"compound": "CC(C)[C@H](NC(=O)[C@H](CS)NC(=O)[C@H](Cc1ccc(O)cc1)NC(=O)[C@H](CCCCN)NC(=O)[C@H](Cc1c[nH]c2ccccc12)NC(=O)[C@H](Cc1ccccc1)NC(=O)[C@H](CS)NC(=O)[C@H](CC(=O)O)NC(=O)[C@@H]1CCCN1C(=O)[C@H](C)NC(=O)[C@@H](N)CCC(=O)O)C(=O)O", "EC50": 3.3},
      {"compound": "NCCCC[C@H](NC(=O)[C@H](Cc1c[nH]c2ccccc12)NC(=O)[C@H](Cc1ccccc1)NC(=O)[C@@H](N)CS)C(=O)N[C@@H](Cc1ccc(O)cc1)C(=O)N[C@@H](CS)C(N)=O", "note": "(H-CFWKYC-NH2)", "EC50": 2.3},
      {"compound": "CC(C)[C@H](NC(=O)[C@H](CS)NC(=O)[C@H](Cc1ccc(O)cc1)NC(=O)[C@H](CCCCN)NC(=O)[C@H](Cc1c[nH]c2ccccc12)NC(=O)[C@H](Cc1ccccc1)NC(=O)[C@@H](N)CS)C(=O)O", "note": "(H-CFWKYCV-OH)", "EC50": 1.8},
      {"compound": "CC(C)[C@H](NC(=O)[C@H](CS)NC(=O)[C@H](Cc1ccc(O)cc1)NC(=O)[C@H](CCCCN)NC(=O)[C@H](Cc1c[nH]c2ccccc12)NC(=O)[C@H](Cc1ccccc1)NC(=O)[C@H](CS)NC(=O)[C@@H](N)CC(=O)O)C(=O)O", "note": "(H-DCFWKYCV-OH)", "EC50": 3},
      {"compound": "CC(C)[C@H](NC(=O)[C@H](CS)NC(=O)[C@H](Cc1ccc(O)cc1)NC(=O)[C@H](CCCCN)NC(=O)[C@H](Cc1c[nH]c2ccccc12)NC(=O)[C@H](Cc1ccccc1)NC(=O)[C@H](CS)NC(=O)[C@H](CC(=O)O)NC(=O)[C@H](C)NC(=O)[C@@H](NC(=O)[C@@H](N)CCC(=O)O)[C@@H](C)O)C(=O)O", "note": "(H-ETADCFWKYCV-OH)", "EC50": 1.9}
    ]},
    {"molecular_target": "T1, Urotensin-2 receptor", "experiment": "as §1", "assay_type": "functional, cell-based", "settings": "cho", "units": {"EC50": "nM"}, "values": [
      {"compound": "CC(C)[C@H](NC(=O)[C@@H]1CSSC[C@H](NC(=O)[C@H](CC(=O)O)NC(=O)[C@@H]2CCCN2C(=O)[C@@H](NC(=O)[C@@H](N)CCC(=O)O)[C@@H](C)O)C(=O)N[C@@H](C)C(=O)N[C@@H](Cc2c[nH]c3ccccc23)C(=O)N[C@@H](CCCCN)C(=O)N[C@@H](Cc2ccc(O)cc2)C(=O)N1)C(=O)O", "note": "(H-ETPDCAWKYCV-OH; disulfide 5-10)", "EC50": 5.7},
      {"compound": "CC(C)[C@H](NC(=O)[C@@H]1CSSC[C@H](NC(=O)[C@H](CC(=O)O)NC(=O)[C@@H]2CCCN2C(=O)[C@@H](NC(=O)[C@@H](N)CCC(=O)O)[C@@H](C)O)C(=O)N[C@@H](Cc2ccccc2)C(=O)N[C@@H](C)C(=O)N[C@@H](CCCCN)C(=O)N[C@@H](Cc2ccc(O)cc2)C(=O)N1)C(=O)O", "note": "(H-ETPDCFAKYCV-OH; disulfide 5-10)", "EC50": 1300},
      {"compound": "CC(C)[C@H](NC(=O)[C@@H]1CSSC[C@H](NC(=O)[C@H](CC(=O)O)NC(=O)[C@@H]2CCCN2C(=O)[C@@H](NC(=O)[C@@H](N)CCC(=O)O)[C@@H](C)O)C(=O)N[C@@H](Cc2ccccc2)C(=O)N[C@@H](CCCCN)C(=O)N[C@@H](Cc2ccc(O)cc2)C(=O)N1)C(=O)O", "note": "(H-ETPDCFKYCV-OH; disulfide 5-9)", "EC50": "> 10000"},
      {"compound": "CC(C)[C@H](NC(=O)[C@@H]1CSSC[C@H](NC(=O)[C@H](CC(=O)O)NC(=O)[C@@H]2CCCN2C(=O)[C@@H](NC(=O)[C@@H](N)CCC(=O)O)[C@@H](C)O)C(=O)N[C@@H](Cc2ccccc2)C(=O)N[C@@H](Cc2c[nH]c3ccccc23)C(=O)N[C@@H](C)C(=O)N[C@@H](Cc2ccc(O)cc2)C(=O)N1)C(=O)O", "note": "(H-ETPDCFWAYCV-OH; disulfide 5-10)", "EC50": 14800},
      {"compound": "CC(C)[C@H](NC(=O)[C@@H]1CSSC[C@H](NC(=O)[C@H](CC(=O)O)NC(=O)[C@@H]2CCCN2C(=O)[C@@H](NC(=O)[C@@H](N)CCC(=O)O)[C@@H](C)O)C(=O)N[C@@H](Cc2ccccc2)C(=O)N[C@@H](Cc2c[nH]c3ccccc23)C(=O)N[C@@H](CCCCN)C(=O)N[C@@H](C)C(=O)N1)C(=O)O", "note": "(H-ETPDCFWKACV-OH; disulfide 5-10)", "EC50": 193},
      {"compound": "C[C@@H](O)[C@H](NC(=O)[C@@H](N)CCC(=O)O)C(=O)N1CCC[C@H]1C(=O)N[C@@H](CC(=O)O)C(=O)N[C@H]1CSSC[C@@H](C(=O)O)NC(=O)[C@H](Cc2ccc(O)cc2)NC(=O)[C@H](CCCCN)NC(=O)[C@H](Cc2c[nH]c3ccccc23)NC(=O)[C@H](Cc2ccccc2)NC1=O", "note": "(H-ETPDCFWKYC-OH; disulfide 5-10)", "EC50": 1.8},
      {"compound": "C[C@H](NC(=O)[C@@H]1CSSC[C@H](NC(=O)[C@H](CC(=O)O)NC(=O)[C@@H]2CCCN2C(=O)[C@@H](NC(=O)[C@@H](N)CCC(=O)O)[C@@H](C)O)C(=O)N[C@@H](Cc2ccccc2)C(=O)N[C@@H](Cc2c[nH]c3ccccc23)C(=O)N[C@@H](CCCCN)C(=O)N[C@@H](Cc2ccc(O)cc2)C(=O)N1)C(=O)O", "note": "(H-ETPDCFWKYCA-OH; disulfide 5-10)", "EC50": 3.2},
      {"compound": "CC(C)[C@H](NC(=O)[C@@H]1CSSC[C@H](NC(=O)[C@H](CC(=O)O)NC(=O)[C@@H]2CCCN2C(=O)[C@@H](NC(=O)[C@@H](N)CCC(=O)O)[C@@H](C)O)C(=O)N[C@@H](Cc2c[nH]c3ccccc23)C(=O)N[C@@H](CCCCN)C(=O)N[C@@H](Cc2ccc(O)cc2)C(=O)N1)C(=O)O", "note": "(H-ETPDCWKYCV-OH; disulfide 5-9)", "EC50": 53},
      {"compound": "CC(C)[C@H](NC(=O)[C@@H]1CSSC[C@H](NC(=O)[C@H](CC(=O)O)NC(=O)[C@@H]2CCCN2)C(=O)N[C@@H](Cc2ccccc2)C(=O)N[C@@H](Cc2c[nH]c3ccccc23)C(=O)N[C@@H](CCCCN)C(=O)N[C@@H](Cc2ccc(O)cc2)C(=O)N1)C(=O)O", "note": "(H-PDCFWKYCV-OH; disulfide 3-8)", "EC50": 3.6},
      {"compound": "CC(C)[C@H](NC(=O)[C@@H]1CSSC[C@H](NC(=O)[C@H](CC(=O)O)NC(=O)[C@@H]2CCCN2C(=O)[C@@H](N)[C@@H](C)O)C(=O)N[C@@H](Cc2ccccc2)C(=O)N[C@@H](Cc2c[nH]c3ccccc23)C(=O)N[C@@H](CCCCN)C(=O)N[C@@H](Cc2ccc(O)cc2)C(=O)N1)C(=O)O", "note": "(H-TPDCFWKYCV-OH; disulfide 4-9)", "EC50": 2.4}
    ]},
    {"molecular_target": "T2, Urotensin-2 receptor (Homo sapiens) (UniProt Q9UKP6)", "T2 sequence (whole entry)": "T1 sequence (Q9UKP6 whole entry)", "settings": "CHO", "values": [
      {"compound": "CC(C)[C@H](NC(=O)[C@H](CS)NC(=O)[C@@H](Cc1ccc(O)cc1)NC(=O)[C@H](CCCCN)NC(=O)[C@H](Cc1c[nH]c2ccccc12)NC(=O)[C@H](Cc1ccccc1)NC(=O)[C@H](CS)NC(=O)[C@H](CC(=O)O)NC(=O)[C@H]1CCCN1C(=O)[C@@H](NC(=O)[C@@H](N)CCC(=O)O)[C@@H](C)O)C(=O)O", "NA": "inactive"},
      {"compound": "CC(C)[C@H](NC(=O)[C@H](CS)NC(=O)[C@H](CCCCN)NC(=O)[C@H](Cc1c[nH]c2ccccc12)NC(=O)[C@H](Cc1ccccc1)NC(=O)[C@H](CS)NC(=O)[C@H](CC(=O)O)NC(=O)[C@H]1CCCN1C(=O)[C@@H](NC(=O)[C@@H](N)CCC(=O)O)[C@@H](C)O)C(=O)O", "NA": "inactive"},
      {"compound": "CC(C)[C@H](NC(=O)[C@H](CS)NC(=O)[C@H](Cc1ccc(O)cc1)NC(=O)[C@H](Cc1c[nH]c2ccccc12)NC(=O)[C@H](Cc1ccccc1)NC(=O)[C@H](CS)NC(=O)[C@H](CC(=O)O)NC(=O)[C@H]1CCCN1C(=O)[C@@H](NC(=O)[C@@H](N)CCC(=O)O)[C@@H](C)O)C(=O)O", "NA": "inactive"}
    ]}
  ]
}
